Values after ≈ are worked out from the molar mass of the structure shown.
Key:
[1] = system: Staphylococcus aureus-SMITH (GC 4543); experiment: acute lethal infection in mice; type: in vivo; settings: acute lethal infection, female CD-1 mice, intraperitoneal challenge, intravenous 30 min. after infection, 7 day survival
How it was run: (§1)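 Mice (female CD-1, 20+/−2 gm) receive bacteria ip in broth or hog gastric mucin, then test agent iv after 30 min. Median effective dose is calculated from 7 day survival pooled across 3 tests.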

[2] = system: Enterococcus faecalis (GC 6189); experiment: acute lethal infection in mice; type: in vivo; settings: female CD-1 mice, intraperitoneal challenge, intravenous 30 min. after infection, 7 day survival
How it was run: as §1

Escherichia coli = experiment: in vitro antibacterial evaluation, MIC by broth dilution; type: cell-based; settings: 18 hours at 35° C.
How it was run: (§2)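 Test organisms, which included recent clinical isolates resistant to methicillin, penicillin and/or vancomycin, were inoculated at 5×10^5 CFU/mL into Muller-Hinton II […] containing antibiotic at 64-0.06 μg/mL. Minimum inhibitory concentrations were then read as the lowest level inhibiting growth.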

Streptococcus sp. = experiment: as above; type: cell-based; settings: broth dilution, 18 hours at 35° C.
How it was run: as §2

Enterococcus sp. = experiment: as above; type: cell-based; settings: broth dilution, 18 hours at 35° C.
How it was run: as §2

Staphylococcus sp. = experiment: as above; type: cell-based; settings: broth dilution, 18 hours at 35° C.
How it was run: as §2

With `Cc1ccc(CC2OCC3OC(OC4C(CO)OC(Oc5ccc(CC6NC(=O)C(C(C)c7ccccc7)NC(=O)CNC(=O)C(CO)NC(=O)C(C(O)C7CNC(=N)N7C7OC(CO)C(O)C(O)C7O)NC(=O)C(C(O)C7CNC(=N)N7)NC6=O)cc5)C(O)C4O)C(O)C(O)C3O2)cc1` (stereo not drawn) [Example 119, Cyclo[glycyl-β-methylphenylalanyl-O-[4-O-[4,6-O-(4-methylphenethylidene)hexopyranosyl]-hexopyranosyl]tyrosyl-3-(2-iminoimidazolidin-4-yl)seryl-3-(3-hexopyranosyl-2-iminoimidazolidin-4-yl)serylseryl]] the median effective dose (ED50), Staphylococcus aureus-SMITH (GC 4543) [1] was 0.19 mg/kg, the median effective dose (ED50), Enterococcus faecalis (GC 6189) [2] was 0.41 mg/kg and the “MIC Escherichia coli (ATCC 25922)” value (Escherichia coli; strain ATCC 25922) was 32 µg/mL (≈ 22.7 µM). For the same molecule, the “MIC Escherichia coli (GC 4559)” value (Escherichia coli; strain GC 4559) was 32 µg/mL (≈ 22.7 µM), the “MIC Escherichia coli (GC 4560)” value (Escherichia coli; strain GC 4560) was 1 µg/mL (≈ 0.708 µM) and the “MIC Streptococcus agalactiae (GC 4564)” value (Streptococcus sp.; Streptococcus agalactiae (GC 4564)) was under 0.5 µg/mL. The “MIC Streptococcus pneumoniae (ATCC 6301)” value (Streptococcus sp.; Streptococcus pneumoniae (ATCC 6301)) was under 0.5 µg/mL, the “MIC Streptococcus pneumoniae (GC 1894)” value (Streptococcus sp.; Streptococcus pneumoniae (GC 1894)) was under 0.5 µg/mL and the “MIC Streptococcus pneumoniae (GC 4565)” value (Streptococcus sp.; Streptococcus pneumoniae (GC 4565)) was 1 µg/mL (≈ 0.708 µM). For the same molecule, the “MIC Streptococcus pyogenes (GC 4563)” value (Streptococcus sp.; Streptococcus pyogenes (GC 4563)) was under 0.5 µg/mL, the “MIC Streptococcus pneumoniae (ATCC 6301)” value (Streptococcus sp.; strain ATCC 6301) was under 0.5 µg/mL and the “MIC Streptococcus pneumoniae (GC 1894)” value (Streptococcus sp.; strain GC 1894) was under 0.5 µg/mL. The “MIC Streptococcus pyogenes (GC 4563)” value (Streptococcus sp.; strain GC 4563) was under 0.5 µg/mL, the “MIC Streptococcus agalactiae (GC 4564)” value (Streptococcus sp.; strain GC 4564) was under 0.5 µg/mL and the “MIC Streptococcus pneumoniae (GC 4565)” value (Streptococcus sp.; strain GC 4565) was 1 µg/mL (≈ 0.708 µM). For the same molecule, the “MIC Enterococcus avium (GC 4558)” value (Enterococcus sp.; Enterococcus avium (GC 4558)) was 4 µg/mL (≈ 2.83 µM), the “MIC Enterococcus faecalis (ATCC 29212)” value (Enterococcus sp.; Enterococcus faecalis (ATCC 29212)) was 2 µg/mL (≈ 1.42 µM) and the “MIC Enterococcus faecalis (GC 2242)” value (Enterococcus sp.; Enterococcus faecalis (GC 2242)) was 2 µg/mL (≈ 1.42 µM). For the same molecule, the “MIC Enterococcus faecalis (GC 2691)” value (Enterococcus sp.; Enterococcus faecalis (GC 2691)) was 2 µg/mL (≈ 1.42 µM), the “MIC Enterococcus faecalis (GC 3059)” value (Enterococcus sp.; Enterococcus faecalis (GC 3059)) was over 64 µg/mL and the “MIC Enterococcus faecalis (GC 4552)” value (Enterococcus sp.; Enterococcus faecalis (GC 4552)) was 2 µg/mL (≈ 1.42 µM). For the same molecule, the “MIC Enterococcus faecalis (GC 4553)” value (Enterococcus sp.; Enterococcus faecalis (GC 4553)) was 4 µg/mL (≈ 2.83 µM), the “MIC Enterococcus faecalis (GC 4554)” value (Enterococcus sp.; Enterococcus faecalis (GC 4554)) was 2 µg/mL (≈ 1.42 µM) and the “MIC Enterococcus faecalis (GC 6189)” value (Enterococcus sp.; Enterococcus faecalis (GC 6189)) was 2 µg/mL (≈ 1.42 µM). For the same molecule, the “MIC Enterococcus faecium (GC 2243)” value (Enterococcus sp.; Enterococcus faecium (GC 2243)) was 4 µg/mL (≈ 2.83 µM), the “MIC Enterococcus faecium (GC 4556)” value (Enterococcus sp.; Enterococcus faecium (GC 4556)) was 2 µg/mL (≈ 1.42 µM) and the “MIC Enterococcus faecium (GC 4557)” value (Enterococcus sp.; Enterococcus faecium (GC 4557)) was 1 µg/mL (≈ 0.708 µM). For the same molecule, the “MIC Enterococcus faecalis (ATCC 29212)” value (Enterococcus sp.; strain ATCC 29212) was 2 µg/mL (≈ 1.42 µM), the “MIC Enterococcus faecalis (GC 2242)” value (Enterococcus sp.; strain GC 2242) was 2 µg/mL (≈ 1.42 µM) and the “MIC Enterococcus faecium (GC 2243)” value (Enterococcus sp.; strain GC 2243) was 4 µg/mL (≈ 2.83 µM). For the same molecule, the “MIC Enterococcus faecalis (GC 2691)” value (Enterococcus sp.; strain GC 2691) was 2 µg/mL (≈ 1.42 µM), the “MIC Enterococcus faecalis (GC 3059)” value (Enterococcus sp.; strain GC 3059) was over 64 µg/mL and the “MIC Enterococcus faecalis (GC 4552)” value (Enterococcus sp.; strain GC 4552) was 2 µg/mL (≈ 1.42 µM). The “MIC Enterococcus faecalis (GC 4553)” value (Enterococcus sp.; strain GC 4553) was 4 µg/mL (≈ 2.83 µM), the “MIC Enterococcus faecalis (GC 4554)” value (Enterococcus sp.; strain GC 4554) was 2 µg/mL (≈ 1.42 µM) and the “MIC Enterococcus faecium (GC 4556)” value (Enterococcus sp.; strain GC 4556) was 2 µg/mL (≈ 1.42 µM). For the same molecule, the “MIC Enterococcus faecium (GC 4557)” value (Enterococcus sp.; strain GC 4557) was 1 µg/mL (≈ 0.708 µM), the “MIC Enterococcus avium (GC 4558)” value (Enterococcus sp.; strain GC 4558) was 4 µg/mL (≈ 2.83 µM) and the “MIC Enterococcus faecalis (GC 6189)” value (Enterococcus sp.; strain GC 6189) was 2 µg/mL (≈ 1.42 µM). For the same molecule, the “MIC Coagulase Negative Staphylococcus (GC 4547)” value (Staphylococcus sp.) was 1 µg/mL (≈ 0.708 µM), the “MIC Coagulase Negative Staphylococcus (GC 4548)” value (Staphylococcus sp.) was 1 µg/mL (≈ 0.708 µM) and the “MIC Coagulase Negative Staphylococcus (GC 4549)” value (Staphylococcus sp.) was 1 µg/mL (≈ 0.708 µM). For the same molecule, the “MIC Coagulase Negative Staphylococcus (GC 4551)” value (Staphylococcus sp.) was 1 µg/mL (≈ 0.708 µM), the “MIC Coagulase Negative Staphylococcus (GC 6257)” value (Staphylococcus sp.) was under 0.5 µg/mL and the “MIC Staphylococcus aureus (ATCC 29213)” value (Staphylococcus sp.) was 1 µg/mL (≈ 0.708 µM). For the same molecule, the “MIC Staphylococcus aureus (GC 1131)” value (Staphylococcus sp.) was 1 µg/mL (≈ 0.708 µM), the “MIC Staphylococcus aureus (GC 3051)” value (Staphylococcus sp.) was 1 µg/mL (≈ 0.708 µM) and the “MIC Staphylococcus aureus (GC 3053)” value (Staphylococcus sp.) was 2 µg/mL (≈ 1.42 µM). The “MIC Staphylococcus aureus (GC 4541)” value (Staphylococcus sp.) was 1 µg/mL (≈ 0.708 µM), the “MIC Staphylococcus aureus (GC 4542)” value (Staphylococcus sp.) was 1 µg/mL (≈ 0.708 µM) and the “MIC Staphylococcus aureus (GC 4544)” value (Staphylococcus sp.) was 1 µg/mL (≈ 0.708 µM). For the same molecule, the “MIC Staphylococcus aureus (GC 4545)” value (Staphylococcus sp.) was 1 µg/mL (≈ 0.708 µM), the “MIC Staphylococcus aureus-SMITH (GC 4543)” value (Staphylococcus sp.) was 1 µg/mL (≈ 0.708 µM) and the “MIC Staphylococcus haemolyticus (GC 4546)” value (Staphylococcus sp.) was 1 µg/mL (≈ 0.708 µM). The “MIC Staphylococcus aureus (GC 1131)” value (Staphylococcus sp.; inoculum 5×10^5 CFU/mL, strain GC 1131) was 1 µg/mL (≈ 0.708 µM), the “MIC Staphylococcus aureus (ATCC 29213)” value (Staphylococcus sp.; strain ATCC 29213) was 1 µg/mL (≈ 0.708 µM) and the “MIC Staphylococcus aureus (GC 3051)” value (Staphylococcus sp.; strain GC 3051) was 1 µg/mL (≈ 0.708 µM). The “MIC Staphylococcus aureus (GC 3053)” value (Staphylococcus sp.; strain GC 3053) was 2 µg/mL (≈ 1.42 µM), the “MIC Staphylococcus aureus (GC 4541)” value (Staphylococcus sp.; strain GC 4541) was 1 µg/mL (≈ 0.708 µM) and the “MIC Staphylococcus aureus (GC 4542)” value (Staphylococcus sp.; strain GC 4542) was 1 µg/mL (≈ 0.708 µM). For the same molecule, the “MIC Staphylococcus aureus (GC 4544)” value (Staphylococcus sp.; strain GC 4544) was 1 µg/mL (≈ 0.708 µM), the “MIC Staphylococcus aureus (GC 4545)” value (Staphylococcus sp.; strain GC 4545) was 1 µg/mL (≈ 0.708 µM) and the “MIC Staphylococcus haemolyticus (GC 4546)” value (Staphylococcus sp.; strain GC 4546) was 1 µg/mL (≈ 0.708 µM). The “MIC Coagulase Negative Staphylococcus (GC 4547)” value (Staphylococcus sp.; strain GC 4547) was 1 µg/mL (≈ 0.708 µM), the “MIC Coagulase Negative Staphylococcus (GC 4548)” value (Staphylococcus sp.; strain GC 4548) was 1 µg/mL (≈ 0.708 µM) and the “MIC Coagulase Negative Staphylococcus (GC 4549)” value (Staphylococcus sp.; strain GC 4549) was 1 µg/mL (≈ 0.708 µM). For the same molecule, the “MIC Coagulase Negative Staphylococcus (GC 4551)” value (Staphylococcus sp.; strain GC 4551) was 1 µg/mL (≈ 0.708 µM), the “MIC Coagulase Negative Staphylococcus (GC 6257)” value (Staphylococcus sp.; strain GC 6257) was under 0.5 µg/mL and the “MIC Staphylococcus aureus-SMITH (GC 4543)” value (Staphylococcus sp.; strain SMITH GC 4543) was 1 µg/mL (≈ 0.708 µM).

From US6914045B2, “Glycopeptide antibiotics” (Wyeth Holdings Corporation, priority 2001, dated 2005)
